Measured values as given in article PMC8085013, “Mixture interactions at mammalian olfactory receptors are dependent on the cellular environment” (Scientific Reports, 2021).
“Also recorded” adds a separate entry of the source.

Assays:
Format in all cases: cell-based
mouse Olfr73 [1] = biological target: T1, mouse Olfr73 (Mus musculus, UniProt Q920P2); assay: Calcium imaging of HEK293 cells expressing Olfr73 with Gα15, short 5-s odorant pulse; conditions: for Agonism/antagonism, HEK293 short odor Ca2+ G15: 5-s pulse, strong agonist 100 µM, putative antagonist 1 mM, single or as pair; for Response to ligand applied alone: HEK293, Gα15, 5-s pulse; for Effect on the response to eugenol in a binary mix: HEK293, Gα15, eugenol 100 µM
T1 sequence (Q920P2 1-313): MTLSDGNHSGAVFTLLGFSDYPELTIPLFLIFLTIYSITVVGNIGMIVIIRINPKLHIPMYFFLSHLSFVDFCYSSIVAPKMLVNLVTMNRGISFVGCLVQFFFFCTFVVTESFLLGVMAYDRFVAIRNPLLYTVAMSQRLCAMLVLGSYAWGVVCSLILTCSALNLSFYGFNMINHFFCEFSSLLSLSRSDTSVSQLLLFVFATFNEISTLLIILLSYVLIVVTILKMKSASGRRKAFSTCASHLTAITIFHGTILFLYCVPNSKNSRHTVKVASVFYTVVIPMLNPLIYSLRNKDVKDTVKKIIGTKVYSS

mouse Olfr73 [2] = biological target: T1, mouse Olfr73; assay: GCaMP3 calcium imaging of mouse OSNs ectopically expressing Olfr73 (rAAV2/5), 5-s odorant pulse; conditions: for Agonism/antagonism, OSN Ca2+ Mouse: strong agonist 100 µM, putative antagonist 1 mM, single or as pair; for Effect on the response to eugenol in a binary mix: eugenol 100 µM or 10 µM plus putative antagonist
mouse Olfr73 [3] = biological target: T1, mouse Olfr73; assay: cell-based; conditions: for Agonism/antagonism, HEK293 short odor Ca2+ Gq11: 5-s pulse, strong agonist 100 µM, putative antagonist 1 mM, single or as pair; for Response to ligand applied alone: HEK293, Gαq11/ß1/γ13, 5-s pulse
mouse Olfr73 [4] = biological target: T1, mouse Olfr73; assay: Calcium imaging of HEK293 cells expressing Olfr73 with Gs/olf, short 5-s odorant pulse; conditions: for Agonism/antagonism, HEK293 short odor Ca2+ Gs/olf: strong agonist 100 µM, putative antagonist 1 mM, single or as pair; for Effect on the response to eugenol or vanillin in a binary mix: agonist 100 µM, test ligand 1 mM
Olfr599 = Olfr599 (Mus musculus, UniProt Q8VG01); assay: GCaMP3 calcium imaging of mouse OSNs ectopically expressing Olfr599 (rAAV2/5); conditions: each at 100 µM, 5-s pulse
Method: Animals 4–6 weeks of age were used for experiments 7–21 days post-inoculation with rAAV2/5 encoding OR-furin2A-GCaMP3. Calcium imaging was performed as detailed previously. Tissue was prepared and mounted with the apical surface facing up. The chamber was transferred to the stage of an upright microscope (Zeiss Axioskop-2F) equipped with a 40×/0.75NA long distance water-immersion objective lens. Experimental solutions were applied for a duration of 5 s directly to the field of view through a 100 µm diameter needle made of fused silica and connected to a 9-channel Teflon manifold. Solution application was controlled by electronic valves (VC-6, Warner Instruments). The calcium response is presented as an increase of GCaMP3 fluorescence originating from the knob and underlying dendrite. The tissue was illuminated using a standard eGFP filter cube BP490 nm/ 535 nm (Omega Optical, USA) and the emitted light was collected at 530 nm (BP 530/20 nm, Omega Optical, USA) by a 12-bit cooled CCD camera (ORCA R2, Hamamatsu, Japan). […] Before processing, fluorescence intensity was corrected for the background. Each knob was assigned a region of interest (ROI) and changes in fluorescence intensity within each ROI were analyzed and expressed as the peak fractional change in fluorescent light intensity (F-Fo)/Fo where Fo is the baseline fluorescence before application of experimental solutions.

mouse Olfr73 [5] = biological target: T1, mouse Olfr73; assay: GCaMP3 calcium imaging of HEK293T cells co-transfected with pTR-Olfr73-furin2A-GCaMP3 (untagged Olfr73) and Gα15, 5-s pulse; conditions: for Response to ligand applied alone: HEK293T, untagged Olfr73, Gα15, 5-s pulse
mouse Olfr73 [6] = biological target: T1, mouse Olfr73; assay: cAMP-dependent Ca2+ influx (CNGCmut, GCaMP3) in HEK293 cells with untagged Olfr73 and Gs/olf, 10-min odorant; conditions: for Response to ligand applied alone, prolonged: 10-min application; for Response to ligand applied alone, prolonged / Agonism/antagonism, HEK293 long odor Ca2+ Gs/olf: eugenol 100 µM, MIEG 1 mM; for Agonism/antagonism, HEK293 long odor Ca2+ Gs/olf: prolonged 10-min odorant application
mouse Olfr73 [7] = biological target: T1, mouse Olfr73; assay: GCaMP3 calcium imaging of rat OSNs ectopically expressing Olfr73 (rAAV2/5), 5-s odorant pulse
mouse Olfr73 [8] = biological target: T1, mouse Olfr73; assay: Cre-SEAP cAMP reporter assay, HEK293 cells co-expressing untagged Olfr73 and Gs/olf, prolonged odorant
Method: cAMP production was measured as previously described. HEK293T cells were co-transfected with a guanine nucleotide exchange factor Ric-8b (50 ng; a gift from Dr. Malnic, Universidade de São Paulo, Brazil), Gαolf (50 ng), RTP1s (100 ng) and untagged Olfr73 (1.5 μg). Cells were also transfected with 1.5 μg of a pCRE-SEAP, where the expression of the secreted alkaline phosphatase (SEAP) is under regulation of the cAMP responsive element. A plasmid pTAL-SEAP missing the Cre element was used as a negative control. Cells were also transfected with 50 ng of a pcDNA5/TO/LacZ (Invitrogen) for DNA concentration normalization. At 24 h post-transfection, the cells were re-seeded for SEAP analysis and odorants were added at the indicated dilutions at 48 h post-transfection. […] The supernatants were incubated for 30 min at 65 °C and then frozen until analysis. The cell pellets were washed with PBS and then lysed with reporter lysis buffer for β-galactosidase measurement following the manufacturer’s instructions (Promega). SEAP activity was measured by mixing 100 μl of supernatant with an equal amount of BluePhos substrate (KPL). Samples were monitored for color development at 630 nm in a microwell plate reader. SEAP activity was calculated by subtracting the responses of cells transfected in parallel with pTAL-SEAP and normalizing to β-gal activity. Average SEAP activity was determined after subtracting the response of cells not expressing an OR and is reported in arbitrary units ± standard deviation.

[9] = HEK293, vanillin 100 µM, MIEG 1 mM

Sequence of Olfr599 (Q8VG01 entry or part of it): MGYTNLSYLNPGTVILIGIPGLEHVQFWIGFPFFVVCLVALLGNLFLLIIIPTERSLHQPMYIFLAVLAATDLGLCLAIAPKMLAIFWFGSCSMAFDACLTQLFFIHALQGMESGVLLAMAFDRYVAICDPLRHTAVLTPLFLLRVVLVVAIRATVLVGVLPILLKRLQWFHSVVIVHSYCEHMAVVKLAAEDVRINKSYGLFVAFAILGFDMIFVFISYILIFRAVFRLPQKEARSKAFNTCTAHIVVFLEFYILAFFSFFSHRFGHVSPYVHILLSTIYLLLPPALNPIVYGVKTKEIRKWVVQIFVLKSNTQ

C/C=C/c1ccc2c(c1)OCO2 [Isosafrole]
Agonism/antagonism, HEK293 short odor Ca2+ G15 (mouse Olfr73 [1]): Antagonist | Agonism/antagonism, OSN Ca2+ Mouse (mouse Olfr73 [2]; 5-s pulse): Agonist | Response relative to the response to eugenol (mouse Olfr73 [2]; ligand 1 mM, 5-s pulse, Olfr73-OSNs): 25% | Agonism/antagonism, HEK293 short odor Ca2+ Gq11 (mouse Olfr73 [3]): Antagonist | Agonism/antagonism, HEK293 short odor Ca2+ Gs/olf (mouse Olfr73 [4]; 5-s pulse): Antagonist

CCCCCCCC=O [octanal]
Response to ligand applied alone (Olfr599): evoked reliable neuronal responses

C=CCc1cc(OC)c(O)c(-c2cc(CC=C)cc(OC)c2O)c1 [di-Eugenol]
Agonism/antagonism, HEK293 short odor Ca2+ G15 (mouse Olfr73 [1]): Antagonist | Agonism/antagonism, OSN Ca2+ Mouse (mouse Olfr73 [2]; 5-s pulse): Inactive | Response to ligand applied alone (mouse Olfr73 [2]; mouse Olfr73-OSNs, 5-s pulse): failed to activate any response | Response to ligand applied alone (mouse Olfr73 [2]; mouse Olfr73-OSNs, 5-s pulse, listed as di-EG): did not elicit any response | Agonism/antagonism, HEK293 short odor Ca2+ Gq11 (mouse Olfr73 [3]): Antagonist | Agonism/antagonism, HEK293 short odor Ca2+ Gs/olf (mouse Olfr73 [4]; 5-s pulse): Antagonist

CC(=O)c1ccccc1 [acetophenone]
Response to ligand applied alone (mouse Olfr73 [2]; mouse Olfr73-OSNs, 5-s pulse): variable responses

C=CCc1ccc(O)c(OC)c1 [Eugenol, eugenol]
Agonism/antagonism, HEK293 short odor Ca2+ G15 (mouse Olfr73 [1]): Agonist | Response to ligand applied alone (mouse Olfr73 [5]): robustly activated | Response to ligand applied alone (mouse Olfr73 [5]; listed as eugenol): robust elevation of intracellular calcium; also recorded: robust calcium signal | EC50 (mouse Olfr73 [2]): 4.8 ± 1.1 µM | Response to ligand applied alone (mouse Olfr73 [2]; mouse Olfr73-OSNs, 5-s pulse): strongly activated; also recorded: consistently evoked a response in all cells | Response to ligand applied alone, prolonged (mouse Olfr73 [6]): sustained cAMP-dependent calcium influx | Agonism/antagonism, HEK293 long odor Ca2+ Gs/olf (mouse Olfr73 [6]): Agonist | EC50 (mouse Olfr73 [7]): 41 ± 12 µM | Sensitivity of rat versus mouse Olfr73-OSNs (mouse Olfr73 [7]; from EC50 values): nearly tenfold less sensitive | Response to ligand applied alone (mouse Olfr73 [3]): consistently activated calcium release | EC50 (mouse Olfr73 [3]; HEK293 short odor Ca2+, Gq11, response normalized to 5 mM eugenol): 184 ± 62 µM | Agonism/antagonism, HEK293 short odor Ca2+ Gs/olf (mouse Olfr73 [4]; 5-s pulse): Agonist | EC50 (mouse Olfr73 [8]; HEK293 long odor, Cre/SEAP, Gs/olf, untagged Olfr73): 205 ± 27 µM

C=C(C)C1CC=C(C)C(=O)C1 (stereo not drawn) [Carvone]
Response to ligand applied alone (mouse Olfr73 [1]): non-agonist | Effect on the response to eugenol in a binary mix (mouse Olfr73 [1]): incapable | Response to ligand applied alone (mouse Olfr73 [3]): non-agonist | Effect on the response to eugenol in a binary mix (mouse Olfr73 [3]; HEK293, eugenol 100 µM, test ligand 1 mM, also with 30-s pre-incubation): no antagonism; also recorded: failed to antagonize | Response to ligand applied alone (mouse Olfr73 [4]; HEK293, Gs/olf, 5-s pulse): did not activate any response | Effect on the response to eugenol or vanillin in a binary mix (mouse Olfr73 [4]; HEK293, Gs/olf): no inhibiting effect

CCCCCOC(C)=O [Amyl acetate, amyl acetate]
Response to ligand applied alone (mouse Olfr73 [2]; mouse Olfr73-OSNs, 5-s pulse): variable responses

COc1cc(C=O)ccc1O [Vanillin, vanillin]
Agonism/antagonism, HEK293 short odor Ca2+ Gs/olf (mouse Olfr73 [4]; 5-s pulse): Agonist

CCC1c2cc(OC)c(O)cc2C(c2ccc(O)c(OC)c2)C1C (stereo not drawn) [di-Isoeugenol]
Agonism/antagonism, HEK293 short odor Ca2+ G15 (mouse Olfr73 [1]): Antagonist | Response to ligand applied alone (mouse Olfr73 [1]): is not an agonist | Effect on the response to eugenol in a binary mix (mouse Olfr73 [1]): antagonizes eugenol | Agonism/antagonism, OSN Ca2+ Mouse (mouse Olfr73 [2]; 5-s pulse): Inactive | Response to ligand applied alone (mouse Olfr73 [2]; mouse Olfr73-OSNs, 5-s pulse, listed as di-IEG): did not elicit any response; also recorded: failed to activate any response | Effect on the response to eugenol in a binary mix (mouse Olfr73 [2]; mouse Olfr73-OSNs, listed as di-IEG): not able to antagonize; also recorded: additive increase | Agonism/antagonism, HEK293 short odor Ca2+ Gq11 (mouse Olfr73 [3]): Antagonist | Agonism/antagonism, HEK293 short odor Ca2+ Gs/olf (mouse Olfr73 [4]; 5-s pulse): Antagonist

C/C=C/c1ccc(OC)c(OC)c1 [Methylisoeugenol, methylisoeugenol]
Agonism/antagonism, HEK293 short odor Ca2+ G15 (mouse Olfr73 [1]): Antagonist | Effect on the response to vanillin, 30-sec pre-incubation (mouse Olfr73 [1]; HEK293, Gα15, vanillin 100 µM, MIEG 1 mM): complete inhibition | Response to ligand applied alone (mouse Olfr73 [5]; listed as MIEG): did not evoke any response; also recorded: did not elicit any response | Effect on the response to eugenol in a binary mix (mouse Olfr73 [5]; eugenol 100 µM, MIEG 1 mM, 5-s pulse): reduced the response; also recorded: significantly diminished | Response to ligand applied alone (mouse Olfr73 [2]; mouse Olfr73-OSNs, 5-s pulse): evoked a measurable response | Response to ligand applied alone (mouse Olfr73 [2]; mouse Olfr73-OSNs, 5-s pulse, listed as MIEG): partial agonist | Response to ligand applied alone (mouse Olfr73 [2]; mouse Olfr73-OSNs, 5-s pulse, listed as methylisoeugenol): also elicited a response | EC50 (mouse Olfr73 [2]; mouse Olfr73-OSNs, Ca2+ (GCaMP3), 5-s odorant pulse, read-out: EC50): 430 ± 130 µM | Effect on the response to eugenol in a binary mix (mouse Olfr73 [2]; mouse Olfr73-OSNs, listed as MIEG): did not reduce the response; also recorded: not significantly changed | Response to ligand applied alone, prolonged (mouse Olfr73 [6]): more slowly developing cAMP-dependent calcium influx; also recorded: significantly smaller than eugenol | Response to mixture with eugenol versus eugenol alone, prolonged (mouse Olfr73 [6]; 10 min, eugenol 100 µM and MIEG 1 mM): no significant difference | Agonism/antagonism, HEK293 long odor Ca2+ Gs/olf (mouse Olfr73 [6]): Agonist | Agonism/antagonism, OSN Ca2+ Rat (mouse Olfr73 [7]; 5-s pulse, strong agonist 100 µM, putative antagonist 1 mM): Agonist | Agonism/antagonism, HEK293 short odor Ca2+ Gq11 (mouse Olfr73 [3]): Antagonist | Effect on the response to vanillin, 30-s pre-incubation (mouse Olfr73 [3]; [9]): near complete inhibition; also recorded: almost completely blocked | Effect on the response to vanillin, co-application (mouse Olfr73 [3]; [9]): only partially inhibited | Agonism/antagonism, HEK293 short odor Ca2+ Gs/olf (mouse Olfr73 [4]; 5-s pulse): Antagonist | Effect on the response to eugenol or vanillin in a binary mix (mouse Olfr73 [4]; HEK293, Gs/olf): antagonized | Agonism/antagonism, HEK293 long odor Cre/SEAP Gs/olf (mouse Olfr73 [8]; prolonged 30-min odorant application): Agonist | Response to ligand applied alone, Cre-SEAP (mouse Olfr73 [8]; prolonged application, 0 µM eugenol): generated cAMP | Interaction with eugenol in a binary mix, Cre-SEAP (mouse Olfr73 [8]; several concentrations of eugenol and MIEG, prolonged incubation): no antagonistic interaction
